Source: the OPERA property sets (Mansouri et al. 2018)

Conditions: not given
With `NC(=O)c1ccccc1[N+](=O)[O-]` the boiling point was 317 °C, the log10 Koc (L/kg) was 1.45 and the melting point was 177 °C.
`O=C[C@H](O)[C@@H](O)[C@@H](O)[C@H](O)C(=O)O` showed a melting point of 166 °C.
Work on `CC(=O)OCC1CCCO1` (configuration not stated) yielded a boiling point of 193 °C.
For `Cc1ccc(C)c(N)c1`, the boiling point was 214 °C, the log10 vapour pressure (mmHg) was -0.824 and the melting point was 15.5 °C. For the same molecule, the ready biodegradability was “not readily biodegradable”.
`O=C(O)c1ccc(C(=O)c2ccccc2)cc1` gave a melting point of 199 °C.
Molecule `Cc1cnc(C)[nH]1` has a boiling point of 267 °C and a melting point of 92 °C.
Molecule `CCOC(=O)Oc1c(OC)cc(C(=O)O[C@@H]2C[C@@H]3CN4CCc5c([nH]c6cc(OC)ccc56)[C@H]4C[C@@H]3[C@H](C(=O)OC)[C@H]2OC)cc1OC` has a melting point of 177 °C.
`COC(=O)c1c[nH]c2ccccc12` gave a melting point of 150 °C.
Molecule `SC1CCCC1` has a boiling point of 132 °C and a log10 vapour pressure (mmHg) of 1.06.
`C=CC1CN2CCC1CC2C(=O)c1ccnc2ccc(OC)cc12` (configuration not stated) showed a melting point of 108 °C.
Molecule `C=COCCCl` has a boiling point of 108 °C, a log10 vapour pressure (mmHg) of 1.43 and a melting point of -70 °C. For the same molecule, the ready biodegradability was “readily biodegradable”.
Work on `CC(C#N)c1ccccc1` (configuration not stated) yielded a boiling point of 231 °C.
`CCCCOC(=O)CCC` gave a boiling point of 166 °C, a log10 vapour pressure (mmHg) of 0.258 and a melting point of -91.5 °C.
With `O=C(O)c1ccccc1-c1ccccc1C(=O)O` the melting point was 234 °C and the ready biodegradability was “readily biodegradable”.
Molecule `ClCCCOc1ccccc1` has a boiling point of 250 °C and a melting point of 12 °C.
In the case of `NS(=O)(=O)c1ccccc1`, the melting point is reported as 151 °C and the ready biodegradability is reported as “not readily biodegradable”.
With `CCN(CC)c1ccc(C=NN(c2ccccc2)c2ccccc2)cc1` the melting point was 94.5 °C.
`CCCCCCCC(=O)Cl` showed a boiling point of 196 °C and a melting point of -63 °C.
Work on `O=NN1CCCCC1` yielded a boiling point of 219 °C.
Molecule `O=C(O)CCN1C(=O)C=CC1=O` has a melting point of 104 °C.
`CC(Cl)CBr` (configuration not stated) showed a boiling point of 118 °C.
With `C/C=C/C=C/C` the boiling point was 80 °C and the melting point was -79 °C.
Molecule `CCCCC1(CC)C(=O)NC(=O)NC1=O` has a melting point of 128 °C.
`Clc1cc2oc3cc(Cl)c(Cl)cc3c2cc1Cl` showed a log10 Henry constant (atm·m³/mol) of -4.78, a log10 Koa of 10 and a melting point of 227 °C.
Work on `CCNC(N)=O` yielded a melting point of 92.5 °C.
With `C=CCCCCCCCCCCCCCC` the boiling point was 285 °C, the log10 vapour pressure (mmHg) was -2.58 and the melting point was 4.1 °C. For the same molecule, the ready biodegradability was “readily biodegradable”.
`CN(C)C(=S)N(C)C` showed a boiling point of 245 °C and a melting point of 79.3 °C.
Work on `ClCCI` yielded a boiling point of 140 °C and a melting point of -15.6 °C.
In the case of `Clc1sc(Cl)c(Cl)c1Cl`, the boiling point is reported as 233 °C and the melting point is reported as 30.5 °C.
Work on `ICCCCI` yielded a melting point of 5.8 °C.
Work on `COC(=O)C(C)Oc1ccc(Oc2ncc(C(F)(F)F)cc2Cl)cc1` (configuration not stated) yielded a log10 Koc (L/kg) of 1.88, a log10 vapour pressure (mmHg) of -5.22 and a melting point of 56 °C.
With `Nc1cc(Cl)cc(Cl)c1` the boiling point was 261 °C, the log10 Koc (L/kg) was 2.49 and the melting point was 52 °C. The ready biodegradability was “not readily biodegradable”.
In the case of `O=C(O)C1c2ccccc2-c2ccccc21`, the melting point is reported as 230 °C.
With `NC(=O)Cc1cccc2ccccc12` the log10 Koc (L/kg) was 2 and the melting point was 184 °C.
Work on `COC1=C[C@H](C)[C@H]2C[C@H]3OC(O)C[C@H]4C(C)=C(OC)C(=O)C([C@@]34C)[C@@]2(C)C1=O` (some centres not stated) yielded a melting point of 227 °C.
`CC(=O)Oc1ccc(C)c(C)c1` showed a boiling point of 235 °C and a melting point of 22 °C.
In the case of `CC(C)(Br)Br`, the boiling point is reported as 115 °C.
Molecule `O=Cc1ccc(CO)o1` has a melting point of 31.5 °C.
With `CCOC(=O)C1CCCC1=O` (configuration not stated) the boiling point was 221 °C.
With `O=C(OC(=O)C(c1ccccc1)c1ccccc1)C(c1ccccc1)c1ccccc1` the melting point was 98 °C.
With `CC=COCC` the boiling point was 71.5 °C.
With `CCCC(=O)c1ccc(C)cc1` the boiling point was 252 °C and the melting point was 12 °C.
With `CCCCCCCCC(=O)OCCCCC` the melting point was -27 °C.
Work on `COC(=O)CCCCCCC(=O)OC` yielded a boiling point of 268 °C and a melting point of -3.1 °C.
In the case of `CC(C)=CCO`, the boiling point is reported as 140 °C.
For `O=P(OC(Cl)CCCl)(OC(Cl)CCCl)OC(Cl)CCCl` (configuration not stated), the melting point was 26.7 °C.
`CC(=O)OCCBr` showed a boiling point of 162 °C and a melting point of -13.8 °C.
For `CCC(N)=O`, the boiling point was 213 °C, the log10 vapour pressure (mmHg) was -1.42 and the melting point was 81.3 °C.
Molecule `CCCCCCCCCCCCCC(N)=O` has a melting point of 104 °C.
With `NCCc1ccc(O)cc1` the melting point was 164 °C.
Molecule `O=C(OCC(O)CO)c1ccccc1Nc1ccnc2cc(Cl)ccc12` (configuration not stated) has a melting point of 170 °C.
Molecule `CC1CCC(=O)CC1` has a boiling point of 170 °C, a log10 vapour pressure (mmHg) of 0.176 and a melting point of -40.6 °C.
`CCCCc1cc(C)ccc1O` showed a boiling point of 228 °C and a melting point of 19 °C.
`CCCCCC1CCCC1` showed a boiling point of 180 °C and a melting point of -83 °C.
`Cc1ccc(CCl)c(C)c1` showed a boiling point of 216 °C.
In the case of `C=CCOC(=O)/C=C\C(=O)OCC=C`, the log10 vapour pressure (mmHg) is reported as -2.17.
With `CCC(CO)[N+](=O)[O-]` (configuration not stated) the melting point was -47 °C.
For `O=C(Cl)C(Cl)Cl`, the boiling point was 108 °C and the log10 vapour pressure (mmHg) was 1.36.
Work on `Cc1nc(NS(=O)(=O)c2ccc(N)cc2)oc1C` yielded a melting point of 193 °C.
Work on `CC(C)OC(=O)C(C)Cl` (configuration not stated) yielded a boiling point of 152 °C.
With `CC(Br)C(Br)CBr` (configuration not stated) the boiling point was 220 °C and the melting point was -19 °C.
Work on `Oc1cc(Br)cc(Br)c1` yielded a boiling point of 274 °C and a melting point of 81 °C.
Molecule `CCCCCCCCCCCCCCCCCC(=O)OCCC` has a melting point of 28.9 °C.
Work on `CC(C)OC(=O)OC(C)C` yielded a boiling point of 147 °C.
Work on `O=C(c1ccccc1O)N1CCOCC1` yielded a melting point of 175 °C.
With `C[Si](C)(C)O[Si](C)(C)O[Si](C)(C)O[Si](C)(C)O[Si](C)(C)O[Si](C)(C)C` the boiling point was 246 °C, the log10 vapour pressure (mmHg) was -1.53 and the melting point was -59 °C.
Work on `CCO/N=C(\OC(=O)c1ccccc1)c1c(OC)ccc(Cl)c1OC` yielded a melting point of 73 °C.
`Nc1c(Cl)c(Cl)nc(C(=O)O)c1Cl` gave a log10 Koc (L/kg) of 1.3, a log10 vapour pressure (mmHg) of -10.1 and a melting point of 218 °C. For the same molecule, the ready biodegradability was “not readily biodegradable”.
Work on `ClCC(Cl)(Cl)C(Cl)(Cl)Cl` yielded a boiling point of 216 °C and a melting point of 26 °C.
Work on `CCOC(CC)(OCC)OCC` yielded a boiling point of 171 °C.
For `CN1C(=O)CCC1=O`, the boiling point was 234 °C and the melting point was 71 °C.
With `CCCC(CC)CC` the boiling point was 119 °C, the log10 biodegradation half-life (days) was 0.602 and the log10 vapour pressure (mmHg) was 1.3.
In the case of `CC(O)C(C)O` (configuration not stated), the ready biodegradability is reported as “readily biodegradable”.
With `C#CCCCC` the boiling point was 71.3 °C, the log10 vapour pressure (mmHg) was 2.12 and the melting point was -132 °C.
For `O=C(O)C(F)(F)C(F)(F)C(F)(F)C(F)(F)C(F)(F)C(F)F`, the boiling point was 192 °C and the melting point was 34 °C.
`CCCCCCCF` gave a boiling point of 118 °C, a log10 vapour pressure (mmHg) of 1.26 and a melting point of -73 °C.
`O=C(O)c1cc([N+](=O)[O-])cc([N+](=O)[O-])c1O` showed a melting point of 170 °C.
Work on `O=C(OCC(COC(=O)c1cccnc1)(COC(=O)c1cccnc1)COC(=O)c1cccnc1)c1cccnc1` yielded a melting point of 162 °C.
For `O=C(O)c1ccccn1`, the melting point was 136 °C and the ready biodegradability was “readily biodegradable”.
Molecule `O=S1(=O)CCOCC1` has a melting point of 132 °C.
For `O=[N+]([O-])c1ccc(O)cc1O`, the melting point was 122 °C.
`Cc1cccc([N+](=O)[O-])c1O` gave a log10 Henry constant (atm·m³/mol) of -4.47 and a melting point of 70 °C.
`CC[C@H](C)[C@@H](C)[C@@H](C)O` showed a boiling point of 166 °C.
Work on `CCC1NC(=O)c2cc(S(N)(=O)=O)c(Cl)cc2N1` (configuration not stated) yielded a melting point of 251 °C.
`O=C1C[C@@H](c2ccc(O)cc2)Oc2cc(O)cc(O)c21` gave a melting point of 251 °C.
Work on `Nc1cccc(Cl)c1` yielded a boiling point of 230 °C, a log10 Henry constant (atm·m³/mol) of -6 and a log10 vapour pressure (mmHg) of -1.18. For the same molecule, the melting point was -10.4 °C and the ready biodegradability was “not readily biodegradable”.
With `CCOC(=O)C1CCC1` the boiling point was 159 °C.
Work on `CCCCCCCCCCCCCCCCCCCC1CCCCC1` yielded a boiling point of 420 °C and a melting point of 45 °C.
`CC=CC(=O)OC(=O)C=CC` showed a boiling point of 247 °C.
For `O=C=Nc1cccc([N+](=O)[O-])c1`, the melting point was 51 °C.
Molecule `CCOC(=O)CCC(C)C` has a boiling point of 163 °C.

Same assay, conditions: fish
`Cc1ccc(C)c(N)c1` gave a log10 BCF of 0.58 and a log10 biotransformation half-life (days) of -0.99.
`NS(=O)(=O)c1ccccc1` gave a log10 BCF of 0.68 and a log10 biotransformation half-life (days) of -0.71.
Work on `Clc1cc2oc3cc(Cl)c(Cl)cc3c2cc1Cl` yielded a log10 BCF of 3.61 and a log10 biotransformation half-life (days) of 0.56.
For `C=CCCCCCCCCCCCCCC`, the log10 biotransformation half-life (days) was 1.67.
For `COC(=O)C(C)Oc1ccc(Oc2ncc(C(F)(F)F)cc2Cl)cc1` (configuration not stated), the log10 BCF was 1.23 and the log10 biotransformation half-life (days) was -1.08.
Molecule `Nc1cccc(Cl)c1` has a log10 BCF of 0.35 and a log10 biotransformation half-life (days) of -0.71.
